Data from US20240122179A1, “AUXINIC HERBICIDES AND METHODS OF USE THEREOF” (CORTEVA AGRISCIENCE LLC, priority 2021, published 2024).

Tests used:
Kochia scoparia (KCHSC) = assay: Postemergence herbicide evaluation, percent reduction in plant size vs untreated control, 21 days after treatment; type: in vivo; conditions: Bassia scoparia, post-emergence, 504 h, KCHSC, postemergence, percent reduction vs untreated control, 21 days after treatment, read-out: Control/Injury; for pest or weed control at 140 g/ha: rate 140 g ae/ha; for pest or weed control at 280 g/ha: rate 280 g ae/ha
How it was run: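 Values are percent reduction in plant size against an untreated control, measured 21 days after a single postemergence spray at 140 or 280 g ae/ha (187 L/ha, 276 kPa). Treatments used 3-4 randomized complete-block replicates on 2 to 8 leaf-stage plants kept in a 25-28 °C greenhouse, with compounds in acetone/DMSO-based solvent containing crop oil and surfactant.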

Amaranthus rudis (AMATA) = assay: as above; type: in vivo, Amaranthus rudis (tall water hemp); conditions: Amaranthus tuberculatus, post-emergence, 504 h, AMATA, postemergence, read-out: Control/Injury; for pest or weed control at 140 g/ha: rate 140 g ae/ha; for pest or weed control at 280 g/ha: rate 280 g ae/ha
How it was run: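 Growth-reduction values are percent decrease in plant size relative to untreated plants, scored 21 days post-application. Amaranthus rudis (2-8 leaves) received postemergence sprays at 140 or 280 g ae/ha, 187 L/ha, in a mixed acetone/DMSO/water/isopropanol carrier with crop oil concentrate. Greenhouse conditions were 25-28° C, 50-60% RH; 3-4 randomized replicates.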

Glycine max = assay: whole plant or invertebrate; conditions: Glycine max, post-emergence, 504 h, read-out: Control/Injury
Procedure: Plants were grown in a soil media composed of 90% by volume Promix BX (Premier Tech Horticulture, Quakertown, PA) and 10% Profile Greens Grade (Profile Products LLC, Buffalo Grove, IL). Promix BX contains approximately 83% Sphagnum Peat Moss, 13% Perlite, 5% vermiculite, and proprietary amounts of limestone, starter fertilizer, and wetting agent. Profile Greens Grade is a sand-sized granule formed from calcining illite and montmorillonite clay. Several seeds of each species were planted in 10 cm square pots and top watered twice daily. Plant material was propagated in a warm greenhouse with temperature ranging from 25 to 28° C. and 50 to 60% relative humidity at the Corteva Global Headquarters (Indianapolis, Indiana, USA). Natural light was supplemented with 1000-watt metal halide overhead lamps with an average illumination of 500 μE m^−2 s^−1 photosynthetic active radiation for 16 consecutive hours each day. Plants were top-watered prior to herbicide application and sub-watered after herbicide application.
Appropriate amounts of test materials were weighed out into glass vials in their technical form to deliver either 140 or 280 g acid equivalent (ae)/ha. The samples were dissolved in 3 ml of Solvent 1. Solvent 1 is 97% acetone and 3% dimethyl sulfoxide and serves as a general-purpose solvent (GPS) for dissolving technical materials. […] The samples were then diluted to their final concentration using 17 ml of solvent 2 for a total of 20 ml of spray solution. Solvent 2 contains 41.58% GPS, 45.53% water, 11.88% isopropyl alcohol, 0.99% crop oil concentrate and 0.02% Trition X-155 surfactant. All percentages are listed on a volume basis. Dicamba diglycolamine was applied as a formulated herbicide, Clarity™ and diluted with solvent 2 to compare all materials in the same spray solution.
Herbicide applications were made to 3 to 4 replicates of each plant species at the 2 to 8 leaf stage, depending on the species. Treatments were applied with a research track-sprayer (Generation III Research Sprayer manufactured by DeVries Manufacturing in Hollandale, MN, USA) calibrated to deliver a spray volume of 187 L/ha. The track-sprayer was fitted with an 8003E nozzle from Spray Systems Company (North Avenue and Schmale Road, P.O. Box 7900, Wheaton, IL 60187), and used a spray pressure of 276 kPa pressure and a speed of 3.1 km/h. The nozzle height was 46 cm above the plant canopy. The experimental design used for the trials was a randomized complete block with 3 or 4 replications per treatment. After application, plants were placed on carts according to the randomization and returned to the greenhouse. Plants were sub-watered after treatment with Indianapolis city water or fertilized three times a week with a commercial fertilizer solution (Jack's Professional 15-5-15 4 Ca 2 Mg fertilizer (manufactured by JR PETERS INC., 6656 Grant Way, Allentown, PA 18106; www.jrpeters.com). Percent visual control assessments were made on a scale of 0 to 100% (where 0 was no control and 100 was complete plant death) at 7, 14, and 21 days after treatment.
In conformity with the methods outlined in Example 49, the effect of representative experimental compounds on the growth of Glycine max was determined at 2 different levels (respectively, 140 and 280 g acid equivalent (ae)/ha) of the experimental actives tested. Plants were treated with one of the compounds, a control plant was not treated. Twenty-one days after treatment, the plants were measured. The data is present as a percent reduction in plant size relative to the untreated control.

[1] = test system: Conyza canadensis (L.) (ERICA); assay: Postemergence herbicide evaluation, percent reduction in plant size vs untreated control, 21 days after treatment; type: in vivo, Conyza canadensis (L.) (Horseweed); conditions: Erigeron canadensis, post-emergence, 504 h, ERICA, postemergence, percent reduction vs untreated control, 21 days after treatment, read-out: Control/Injury; for pest or weed control at 140 g/ha: rate 140 g ae/ha; for pest or weed control at 280 g/ha: rate 280 g ae/ha
How it was run: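 Track-sprayer applications (187 L/ha, 276 kPa) of 140 or 280 g ae/ha, technical material dissolved in acetone/DMSO then diluted with crop oil and surfactant-containing solvent, to greenhouse Conyza canadensis at 2-8 leaves. After 21 days, size reduction relative to untreated plants was recorded; 3-4 randomized replicates.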

[2] = test system: Ambrosia artemisiifolia (AMBEL); assay: as above; type: in vivo, Ambrosia artemisiifolia (common ragweed); conditions: post-emergence, 504 h, AMBEL, postemergence, read-out: Control/Injury; for pest or weed control at 140 g/ha: rate 140 g ae/ha; for pest or weed control at 280 g/ha: rate 280 g ae/ha
How it was run: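 Test compounds at 140 or 280 g ae/ha were applied by track sprayer (187 L/ha, spray solution containing acetone/DMSO, isopropanol, crop oil, surfactant) to 2–8 leaf plants, 3–4 replicates. Plants were kept in a greenhouse at 25–28 °C. Size reduction was scored against untreated controls at 21 days.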

[3] = test system: Amaranthus palmeri (AMAPA); assay: as above; type: in vivo, Amaranthus palmeri (Palmer amaranth); conditions: post-emergence, 504 h, R-AMAPA, postemergence, percent reduction vs untreated control, 21 days after treatment, read-out: Control/Injury; for pest or weed control at 140 g/ha: rate 140 g ae/ha; for pest or weed control at 280 g/ha: rate 280 g ae/ha
How it was run: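 Percent reduction in plant size relative to untreated plants, measured 21 days after track-sprayer application (187 L/ha) of 140 or 280 g ae/ha to Amaranthus palmeri at the 2 to 8 leaf stage. Randomized complete block, 3 or 4 replicates, greenhouse at 25 to 28° C; spray solution acetone/DMSO with isopropanol, water and crop oil concentrate.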

| SMILES | pest or weed control at 140 g/ha (Kochia scoparia (KCHSC)) | pest or weed control at 280 g/ha (Kochia scoparia (KCHSC)) | pest or weed control at 140 g/ha (Amaranthus rudis (AMATA)) | pest or weed control at 280 g/ha (Amaranthus rudis (AMATA)) | plant injury at 140 g/ha (Glycine max) | plant injury at 280 g/ha (Glycine max) | pest or weed control at 140 g/ha [1] | pest or weed control at 280 g/ha [1] | pest or weed control at 140 g/ha [2] | pest or weed control at 280 g/ha [2] | pest or weed control at 140 g/ha [3] | pest or weed control at 280 g/ha [3] |
| --- | --- | --- | --- | --- | --- | --- | --- | --- | --- | --- | --- | --- |
| CCO/C(C)=N\OC(=O)c1c(Cl)ccc(Cl)c1OC [Compound A-93] | 77% | 93% | 60% | 75% | 10% | 5% | 63% | 80% | 68% | 90% | 68% | 80% |
| CCOC(=O)C(=NOC(=O)c1c(Cl)ccc(Cl)c1OC)C(=O)OCC [Compound A-87] | 90% | 70% | 37% | 20% | 5% | 28% | 30% | 33% | 70% | 65% | 62% | 53% |
| CCOC(=O)/C(C#N)=N/OC(=O)c1c(Cl)ccc(Cl)c1OC [Compound A-86] | 90% | 97% | 63% | 67% | 32% | 25% | 87% | 95% | 88% | 91% | 72% | 73% |
| COc1c(Cl)ccc(Cl)c1C(=O)NS(=O)(=O)c1nccn1C [Compound A-79] | 0% | 3% | 7% | 13% | 6% | 3% | 0% | 2% | 15% | 22% | 13% | 10% |
| COc1c(Cl)ccc(Cl)c1C(=O)ON1CCCCC1 [Compound A-92] | 83% | 98% | 63% | 92% | 2% | 4% | 85% | 92% | 92% | 96% | 78% | 80% |
| CO/C(=N\OC(=O)c1c(Cl)ccc(Cl)c1OC)c1ccccc1 [Compound A-83] | 85% | 94% | 65% | 65% | 22% | 15% | 90% | 97% | 93% | 87% | 70% | 83% |
| COc1c(Cl)ccc(Cl)c1C(=O)ONC(=O)c1ccccc1 [Compound A-89] | 84% | 95% | 63% | 78% | 13% | 5% | 77% | 95% | 80% | 90% | 70% | 88% |
